Reference: BindingDB's records for patent US9328099 (Merck Sharp & Dohme, 2016)

Experiments:
[1] = biological target: Tyrosine-protein kinase JAK1 (Homo sapiens, UniProt P23458); test: HTRF Biochemical Assay; settings: 25 °C
[2] = biological target: Tyrosine-protein kinase JAK2 (Homo sapiens, UniProt O60674); test: HTRF Biochemical Assay; settings: 25 °C
Chain of Tyrosine-protein kinase JAK2 (O60674 whole entry): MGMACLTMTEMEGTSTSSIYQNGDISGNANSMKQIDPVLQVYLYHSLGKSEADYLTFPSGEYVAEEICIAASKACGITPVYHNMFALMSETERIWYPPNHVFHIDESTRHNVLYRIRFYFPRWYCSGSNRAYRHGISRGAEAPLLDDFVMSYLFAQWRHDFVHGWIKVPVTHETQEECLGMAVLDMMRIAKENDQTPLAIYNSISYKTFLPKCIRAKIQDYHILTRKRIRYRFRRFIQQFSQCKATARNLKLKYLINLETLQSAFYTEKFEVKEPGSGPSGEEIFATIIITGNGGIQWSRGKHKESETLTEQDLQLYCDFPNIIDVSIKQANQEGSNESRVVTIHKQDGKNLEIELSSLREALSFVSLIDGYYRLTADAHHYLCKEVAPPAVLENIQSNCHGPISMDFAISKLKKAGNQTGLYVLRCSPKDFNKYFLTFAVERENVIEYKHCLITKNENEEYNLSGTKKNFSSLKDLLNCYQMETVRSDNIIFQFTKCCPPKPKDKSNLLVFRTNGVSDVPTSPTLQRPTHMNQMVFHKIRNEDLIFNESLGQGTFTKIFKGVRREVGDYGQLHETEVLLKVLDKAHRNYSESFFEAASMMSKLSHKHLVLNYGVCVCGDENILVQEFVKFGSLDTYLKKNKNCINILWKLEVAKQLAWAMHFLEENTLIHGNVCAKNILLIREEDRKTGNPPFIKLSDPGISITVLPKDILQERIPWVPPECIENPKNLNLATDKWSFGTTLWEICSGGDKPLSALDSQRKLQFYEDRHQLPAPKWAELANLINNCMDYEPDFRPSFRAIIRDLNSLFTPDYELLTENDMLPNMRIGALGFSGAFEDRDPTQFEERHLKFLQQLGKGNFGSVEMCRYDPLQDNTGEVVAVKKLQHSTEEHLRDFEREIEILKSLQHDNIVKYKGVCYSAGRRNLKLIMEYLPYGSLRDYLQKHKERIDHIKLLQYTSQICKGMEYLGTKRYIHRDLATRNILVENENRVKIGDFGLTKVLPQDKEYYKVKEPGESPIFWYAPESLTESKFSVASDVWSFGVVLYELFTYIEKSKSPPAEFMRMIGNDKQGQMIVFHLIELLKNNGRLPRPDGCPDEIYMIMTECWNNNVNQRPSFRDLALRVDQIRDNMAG

Chain of Tyrosine-protein kinase JAK1 (P23458 whole entry): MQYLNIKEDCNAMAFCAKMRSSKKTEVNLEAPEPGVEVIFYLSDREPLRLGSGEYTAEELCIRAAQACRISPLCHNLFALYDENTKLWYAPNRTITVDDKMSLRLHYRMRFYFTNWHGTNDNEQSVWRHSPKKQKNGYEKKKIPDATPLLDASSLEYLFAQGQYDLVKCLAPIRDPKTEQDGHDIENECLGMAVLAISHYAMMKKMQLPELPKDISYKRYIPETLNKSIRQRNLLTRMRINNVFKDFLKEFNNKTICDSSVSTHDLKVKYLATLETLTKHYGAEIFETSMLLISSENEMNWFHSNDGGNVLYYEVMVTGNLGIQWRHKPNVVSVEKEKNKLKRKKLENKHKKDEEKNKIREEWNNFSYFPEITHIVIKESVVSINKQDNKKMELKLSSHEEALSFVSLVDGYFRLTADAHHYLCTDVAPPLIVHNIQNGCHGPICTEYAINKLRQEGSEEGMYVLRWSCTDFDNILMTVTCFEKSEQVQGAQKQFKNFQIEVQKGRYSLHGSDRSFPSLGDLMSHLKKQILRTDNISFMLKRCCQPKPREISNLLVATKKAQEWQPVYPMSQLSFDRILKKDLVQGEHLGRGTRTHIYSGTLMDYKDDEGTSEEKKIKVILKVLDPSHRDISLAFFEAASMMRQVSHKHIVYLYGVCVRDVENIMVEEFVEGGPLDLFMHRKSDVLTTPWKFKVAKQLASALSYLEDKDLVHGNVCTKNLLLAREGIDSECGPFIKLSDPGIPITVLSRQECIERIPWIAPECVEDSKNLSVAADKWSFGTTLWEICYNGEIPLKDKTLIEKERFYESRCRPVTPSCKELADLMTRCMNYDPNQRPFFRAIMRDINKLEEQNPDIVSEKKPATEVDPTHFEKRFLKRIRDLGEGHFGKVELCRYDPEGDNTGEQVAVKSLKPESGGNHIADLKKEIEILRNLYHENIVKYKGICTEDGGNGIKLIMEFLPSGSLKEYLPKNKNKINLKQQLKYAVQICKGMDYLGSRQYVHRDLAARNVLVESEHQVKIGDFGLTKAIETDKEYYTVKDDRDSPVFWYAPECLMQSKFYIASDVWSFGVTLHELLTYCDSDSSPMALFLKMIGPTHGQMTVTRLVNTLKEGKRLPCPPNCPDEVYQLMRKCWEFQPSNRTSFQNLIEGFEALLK

IC50 [1]: 1 nM
IC50 [2]: 40 nM
Structure (SMILES): Cc1cc(F)c(Nc2ccnc3c2C(=O)Nc2cc(CN4CC[C@@H](N)C4)ccc2N3)cc1O [US9328099, 29-A]
